Measurements from EP3710011B1, “PENTACYCLIC TRITERPENES FOR THE TREATMENT OF AN ORAL DISEASE” (PIERRE FABRE MEDICAMENT, priority 2017, dated 2019).
Read-outs that look alike come from different tables or passages of the source.

Legend:
[1] = system: Staphylococcus aureus CIP4.83; test: Determination of minimal inhibitory (CMI) and minimal bactericidal (CMB) concentration, liquid micro-method then subculture on agar; format: cell-based; conditions: for CMB / CMI / CMB (DMSO dilution) / CMI (DMSO dilution): S. aureus; for CMB / CMI: purified sample dissolved in DMSO; for CMB (DMSO dilution): real dilution (DMSO) at the CMB point; for CMI (DMSO dilution): real dilution (DMSO) at the CMI point
Method: • L'échantillon « Extrait CCV » obtenu tel que dans l'exemple 1 est titré à 150 µg/ml en Célastrol, 40 µg/ml en Tingénine A et 20 µg/ml en Tingénine B, dissouts dans du pentylène glycol 100 %. Pour les besoins du dosage, il est dilué à 2 % dans de l'eau pour préparation injectable (PPI). • L'échantillon « Tingénine A » est titré à 150 µg/ml dans du DMSO 10 %. • L'échantillon « Tingénine B » est titré à 150 µg/ml du DMSO 10 %. • L'échantillon « Célastrol » est titré à 150 µ/ml dans du DMSO 10 %.
Les souches bactériennes utilisées sont : • Staphylococcus aureus CIP4.83 entretenue sur milieu gelosé Trypticase-soja à 36 +/- 1 °C. • Fusobacterium nucleatum CIP101130T entretenue sur milieu gélosé Columbia + 5 % de sang de mouton à 36+/-1 °C en anaérobiose
La détermination de la Concentration Minimale Inhibitrice (CMI) est réalisée par micro-méthode en milieu liquide. 100 µL de milieu de culture Muller Hinton sont déposés dans chaque puits d'une microplaque de 96 puits stérile. 100 µL de l'échantillon à tester sont déposés dans la colonne 1 de la microplaque (deux puits par extrait à tester). Des dilutions de raison 2 sont réalisées de la façon suivante : 100 µL sont prélevés dans les puits de la colonne 1 puis ajouté et mélangés aux puits de la colonne 2. Cette opération est répétée jusqu'à la colonne 10. Les 100 µL prélevés dans la colonne 10 sont éliminés. La colonne 11 est utilisée comme témoin positif (milieu de culture + bactérie à tester). La colonne 12 est utilisée comme témoin négatif (milieu de culture seul). La microplaque est ensemencée (hors témoin négatif de croissance). Après une incubation de 16 à 24 h l'observation de la croissance à l'œil nu permet de déterminer une CMI (la plus faible concentration en extrait qui inhibe la croissance).
La détermination de la Concentration Minimale Bactéricide (CMB) est réalisée par repiquage des microplaques CMI sur un milieu Muller Hinton gélosé. Après incubation, la CMB correspond à la plus faible concentration de l'extrait testé pour laquelle on observe une absence de croissance.
Dans les tableaux 1 et 2 présentant les résultats comparatifs des différents échantillons testés sont indiqués : • 1. Pour l'extrait CCV, les CMI/CMB sont des concentrations équivalentes en célastrol. En effet, cet extrait est une solution qui contient majoritairement du Célastrol (Célastrol > 50 %, Tingénine A > 5 % et Tingénine B > 5 %). L'extrait est dissout dans du Pentylène Glycol (PG), on a le % (P/P) correspondant à la dilution réelle au point de CMI ou de CMB, et on en déduit la concentration équivalente en Célastrol grâce au titre (150 µg/ml) quantifié par HPLC. • 2. Pour les échantillons de Célastrol, de Tingénine A et de Tingénine B purifiés et dissouts dans le DMSO, le % mentionné correspond à la dilution réelle au point de CMI ou de CMB. • 3. Pour les solvants de contrôle DMSO et Pentylène Glycol (PG) testés en parallèle, le % correspond à la dilution réelle au point de CMI ou de CMB.

[2] = system: kératinocytes humains oraux; test: ELISA of IL-8, hBD-2 and MMP-9 secreted by oral keratinocytes stimulated with IL-17, IL-22 and TNF-alpha; format: cell-based; conditions: 48h stimulation; for inhibition at 10 µM: Keratinocyte
Method: (§1) • L'échantillon « Extrait CCV » est obtenu tel que décrit dans l'exemple 1 et est dilué dans du DMSO 0,4% afin d'obtenir une concentration en célastrol de 137 µg/mL; trois doses sont testées, à savoir 10, 30 et 100 ng/mL. • L'échantillon « Célastrol » 150 µg/mL dans du DMSO 0,4 %; trois doses sont testées à savoir 10, 30 et 100 ng/mL.
(§2) Les échantillons contrôles sont les suivants : • L'échantillon témoin négatif « DMSO » (DMSO à 0,4%); et • L'échantillon témoin positif « Inhibiteur JAK » comprenant 10 µM d'inhibiteur JAK (JAK Inhibitor I - CAS 457081-03-7 - Calbiochem).
(§3) La lignée cellulaire utilisée est une lignée de kératinocytes humains oraux (CliniSciences ref.2610-SC). Cette lignée est cultivée à 37 °C, sous atmosphère 5 % de CO2 dans un milieu adapté (Oral Keratinocyte medium OKM supplémenté avec de la pénicilline 100 U/mL et de la streptomycine 100 µg/mL).
(§4) Les kératinocytes humains oraux sont ensemencés dans des puits de plaques à 24 puits (75 000 cellules/puits) et cultivés pendant 24h. Le milieu de culture est alors remplacé par du milieu frais contenant les échantillons à tester, et les cellules sont à nouveau incubées pendant 24h. L'opération est renouvelée à nouveau en présence d'un mix de cytokines stimulatrice des kératinocytes : IL-17, IL-22 et TNF-alpha à 3 ng/ml chacune. Le temps de culture est de 24h pour les expériences de RT-pPCR et de 48 pour les expériences d'ELISA. Les cellules sont ensuite lavées dans une solution de PBS et congelées immédiatement à - 80 °C.
(§5) Les expériences ont été réalisées en triplicats.
La quantité d'IL8, hBD-2 (DEBF4A) et de MMP-9 sécrétée par les kératinocytes dans le milieu de culture après 48h de stimulation est mesurée par ELISA.

[3] = system: kératinocytes humains oraux; test: RT-qPCR of inflammatory marker expression in oral keratinocytes stimulated with IL-17, IL-22 and TNF-alpha; format: cell-based
Method: as §1, §2, §3, §4, §5
L'expression des marqueurs IL-8, CXCL1, DEBF4A, S100A7, IL-36 gamma et MMP9, par les kératinocytes est déterminée par RT-qPCR comme décrit dans la littérature avec des kits de Reverse transcriptase (Roche) et de PCR quantitative. Un témoin positif de PCR (GAPDH), exprimé constitutivement, est réalisé en parallèle afin de normaliser les résultats obtenus.

lymphocytes T CD4+ = test: Anti-TH17 activity: cytokines secreted by CD4+ T lymphocytes activated with anti-CD3/anti-CD28 (Multiplex Immunoassays); format: cell-based, humaines; conditions: 2 µM
Method: L'échantillon « Extrait CCV » est obtenu tel que dans l'exemple 1 et est dilué dans 0,4 % DMSO afin d'obtenir les différentes concentrations finales suivantes après ajout dans les puits : • Extrait 2 (titré en Célastrol à 9 ng/ml); • Extrait 3 (titré en Célastrol à 30 ng/ml); et • Extrait 4 (titré en Célastrol à 90 ng/ml).
Les échantillons contrôles sont les suivants : • Contrôle négatif 1 (solution DMSO à 0,4 %); et • Contrôle positif 5 : dexaméthasone (Dexa) à 2 µM (concentration finale dans le puits).
Les cellules T humaines ont été isolées à partir de cellules mononuclées de sang de deux donneurs sur Ficoll Paque plus (selon le protocole du fabricant). Les cellules CD4+ sont isolées par tri positif (Kit Miltenyi Biotec (CD4) et colonne LS) et remises en suspension dans du milieu de culture RPMI (Sigma Aldrich : L-Glutamine et sérum foetal bovin à 10 %) additionné de […] de streptomycine et 100 U/mL de pénicilline.
Les Lymphocytes en suspension sont répartis dans des puits de microplaques. […]
La quantité de cytokine IL17A, IFN gamma, IL22, TNF alpha et IL6 sécrétée dans le surnageant de culture des lymphocytes est ensuite mesurée par la méthode Multiplex Immunoassays (tel que notamment décrit dans Jager et al. Clin. Diagn. Lab. Immunol. 2003, 10(1), 133-139).

| SMILES | CMB [1] | CMI [1] | CMB (DMSO dilution) [1] | CMI (DMSO dilution) [1] | other results |
| --- | --- | --- | --- | --- | --- |
| CC1=C(O)C(=O)C=C2C1=CC=C1[C@@]2(C)CC[C@@]2(C)[C@@H]3C[C@@H](C)C(=O)[C@@H](O)[C@]3(C)CC[C@]12C [Tingénine B, 22 béta-Hydroxy-tingénone] | 1,17 µg/ml | 0,59 µg/ml | 0,08% | 0,04% | activité anti S. aureus, fois supérieure à celle de la Tingénine A ([1]; ratio versus Tingénine A): 2-4 fois |
| CC1=C(O)C(=O)C=C2C1=CC=C1[C@@]2(C)CC[C@@]2(C)[C@@H]3C[C@](C)(C(=O)O)CC[C@]3(C)CC[C@]12C [Célastrol] | 0,59 µg/ml | 0,29 µg/ml | 0,04% | 0,01% | inhibition de l'expression du marqueur MMP9 ([2]; at 30 ng/ml): ~40%; expression des marqueurs IL-8, DEFBA4, S100A7, IL-36 gamma et MMP9 ([3]; 10, 30 and 100 ng/mL, 24h stimulation): inhibition claire, significative et dose dépendante |
| CC1=C(O)C(=O)C=C2C1=CC=C1[C@@]2(C)CC[C@@]2(C)[C@@H]3C[C@@H](C)C(=O)C[C@]3(C)CC[C@]12C [Tingénine A] | 2,34 µg/ml | 1,17 µg/ml | 0,08% | 0,08% | – |
| C[C@@H]1C[C@H]2[C@@H]3CCC4=CC(=O)C=C[C@]4(C)[C@@]3(F)[C@@H](O)C[C@]2(C)[C@@]1(O)C(=O)CO [dexaméthasone] | – | – | – | – | surexpression des cytokines IL-17A, IFN gamma, IL-22, TNF alpha et IL-6 (lymphocytes T CD4+): inhibe la surexpression de toutes les cytokines |
| CC(C)(C)c1nc2c3ccc(F)cc3c3c(=O)[nH]ccc3c2[nH]1 [inhibiteur JAK, JAK Inhibitor I] | – | – | – | – | augmentation de la sécrétion de MMP-9 ([2]; 10 µM): 60%; inhibition at 10 µM ([2]; 10 µM, read-out: inhibition de la sécrétion d'IL-8): 69%; inhibition at 10 µM ([2]; 10 µM, read-out: inhibition de la sécrétion de β-défensine-2): 82%; expression de l'IL-36 gamma et de la MMP9 ([3]; 10 µM): n'inhibe ni l'IL-36 gamma ni la MMP9; expression d'IL8, de DEFB4A et de S100A7 ([3]; 10 µM, versus negative control): diminution de l'expression |
